Measured values taken from patent US4277477A, “Method of using 1,2-benzisothiazoles” (BASF Aktiengesellschaft, priority 1977, dated 1981).
Structures can show the parent of a compound that is named as a salt.

Key:
female Swiss mice = conditions: LD 50 mice i.p. / ED 50% rats oral
Experimental: The acute toxicity was determined on groups of 10 or 20 female Swiss mice weighing 20-26 g, using intraperitoneal administration.

in vivo = type: in vivo, rats (Sprague Dawley); conditions: rat, in vivo; rats, oral; read-out: Maximum effect, Dose (maximum nontoxic dose)
Experimental: (§1) The anti-arrhythmic activity of the compounds is determined by orally administering these to rats (Sprague Dawley, weight: 180-240 g) 45 minutes before the start of narcosis (100 mg/kg of thiobutabarbital, administered intraperitoneally).
(§2) The arrhythmogenous substance used was aconitine, administered by intravenous infusion (at the rate of 0.005 mg/kg. minute) 60 minutes after administration of the benzisothiazole derivative.
(§3) for a quantitative evaluation of the linear relation between the logarithm of the dose (mg/kg) of the test substances and the relative increase in the duration of infusion of aconitine (Δ%), the dose which increases the duration of infusion by 50% (ED 50%) was determined.

[1] = tested on: Aconitineinduced arrhythmia in rats; experiment: in vivo; type: in vivo, rats (Sprague Dawley); conditions: oral
Experimental: as §1, §2, §3

SMILES | therapeutic range (LD 50/ED 50%), times greater than for procainamide (female Swiss mice) | MTD (in vivo) | antiarrhythmic activity, times greater than that of procainamide [1] | Antiarrhythmic effect, R.E. (relative effect; procainamide = 1.00) ([1]; relative to procainamide)
c1ccc2c(-c3ccc(C4=NCCCN4)cc3)nsc2c1 [Example 2, 3-[4'-(Tetrahydropyrimidin-2"-yl)-phenyl]-1,2-benzisothiazole hydrochloride] | 4 times | 215 mg/kg | about 5 times | –
CCN(CC)CCNC(=O)c1ccc(N)cc1 [Procainamide, procainamide, reference compound] | – | 681 mg/kg | – | –
CC1CN=C(c2ccc(-c3nsc4ccccc34)cc2)N1 (centres unmarked) [Example 3, 3-[4'-(Methylimidazolin-2"-yl)-phenyl]-1,2-benzisothiazole hydrochloride] | 2.8 times | 215 mg/kg | about 5 times | 4.80
